In PMC5420810 (Annals of Clinical and Translational Neurology, 2017):

Legend:
Dravet syndrome patients = experiment: Retrospective chart review of anticonvulsant responses in Dravet syndrome; format: in vivo, human; details: for Effectiveness in Dravet syndrome cohort / Patients with effective response with tolerable side effects: patient or parent‐reported
[1] = Pharmacokinetic analysis of clobazam and stiripentol after a single ip injection; format: in vivo, Wild‐type and Scn1a +/− mice
Scn1a +/− mice [2] = experiment: Hyperthermia‐induced seizures; format: in vivo, mouse; details: for Effect on hyperthermia‐induced seizure response: single‐point ip doses targeting human therapeutic range (Table 1)
Scn1a +/− mice [3] = experiment: Spontaneous seizure; format: in vivo, mouse; details: for Effect on spontaneous GTCS frequency: subchronic treatment in chow, naïve mice, 60 h recording
Scn1a +/− mice [4] = experiment: Survival analysis; format: in vivo, mouse; details: for Mice surviving through P30: naïve mice, chow treatment from P18, untreated 67% (14/21)
[5] = Plasma drug concentration after subchronic oral treatment in chow; details: for Subchronic treatment plasma concentration: mg/kg chow: carbamazepine 7500, clobazam 160 (NCLB = metabolite after clobazam), lamotrigine 125, levetiracetam 1350, phenobarbital 300, stiripentol 4000, topiramate 850, valproic acid 4500, mean ± SEM, n = 5–8
Scn1a +/− mice [6] = experiment: Spontaneous GTCS following hyperthermic seizure priming; format: in vivo, mouse; details: hyperthermia‐primed, clobazam 160 mg/kg chow, 60 h P19–P21 (4/16); untreated 61%
[7] = single ip 10 mg/kg clobazam, analyte = labelled substance

NS(=O)(=O)Cc1noc2ccccc12 [Zonisamide]
Effectiveness in Dravet syndrome cohort (Dravet syndrome patients): limited effectiveness

CC(C)(C)C(O)/C=C/c1ccc2c(c1)OCO2 (stereo not shown) [Stiripentol]
AUC(0-inf) ([1]; mouse, plasma, ip, 100 mg/kg): 210 µg·h/mL | Cmax ([1]; mouse, plasma, ip, 100 mg/kg): 46000 ng/mL | half-life ([1]; mouse, plasma, ip, 100 mg/kg): 2.82 h | tmax ([1]; mouse, plasma, ip, 100 mg/kg): 1.5 h | Patients with effective response with tolerable side effects (Dravet syndrome patients; Dravet syndrome cohort): > 50% | Effect on hyperthermia‐induced seizure response (Scn1a +/− mice [2]): no effect | Effect on hyperthermia seizure threshold temperature vs vehicle (Scn1a +/− mice [2]; stiripentol 100 mg/kg ip): increased threshold temperature | Protected from hyperthermia‐induced GTCS (Scn1a +/− mice [2]; stiripentol 300 mg/kg ip (3/13)): 23%

CCCC(CCC)C(=O)O [Valproic Acid]
Patients with effective response with tolerable side effects (Dravet syndrome patients; Dravet syndrome cohort): > 50% | Effect on spontaneous GTCS frequency (Scn1a +/− mice [3]): did not result in a statistically significant change | Effect on hyperthermia‐induced seizure response (Scn1a +/− mice [2]): no effect | Protection from hyperthermia‐induced GTCS (Scn1a +/− mice [2]; valproic acid 100 mg/kg ip): 30% | Protection from hyperthermia‐induced GTCS (Scn1a +/− mice [2]; valproic acid 200 mg/kg ip): 50% | Protection from hyperthermia‐induced GTCS (Scn1a +/− mice [2]; valproic acid 300 mg/kg ip): 100%

O=C1CN=C(c2ccccc2Cl)c2cc([N+](=O)[O-])ccc2N1 [clonazepam]
Patients with effective response with tolerable side effects (Dravet syndrome patients; Dravet syndrome cohort): less than 45%

CC[C@@H](C(N)=O)N1CCCC1=O [Levetiracetam]
Effectiveness in Dravet syndrome cohort (Dravet syndrome patients): limited effectiveness | Effect on spontaneous GTCS frequency (Scn1a +/− mice [3]): did not result in a statistically significant change | Mice surviving through P30 (Scn1a +/− mice [4]): 100%

Nc1nnc(-c2cccc(Cl)c2Cl)c(N)n1 [Lamotrigine]
Patients with significant worsening of seizures (Dravet syndrome patients; Dravet syndrome cohort): approximately 50% | Patients with significant worsening of seizures (patients/patients trialed) (Dravet syndrome patients; Dravet syndrome cohort): 25/50 | Seizures that escalated to tonic hindlimb extension (Scn1a +/− mice [3]; naïve cohort, lamotrigine chow, untreated 33% (17/52)): None of the 155 seizures | Effect on spontaneous GTCS frequency (Scn1a +/− mice [3]): significantly worsened | Survival through P42 (6‐week survival) (Scn1a +/− mice [4]; lamotrigine chow from P18, untreated 68% (15/22)): completely prevented lethality | Mice that experienced a hyperthermia‐induced GTCS (Scn1a +/− mice [2]; lamotrigine 20 mg/kg ip, 12 mice, vehicle 10 of 12): 12 mice | Threshold temperature for hyperthermia‐induced GTCS (Scn1a +/− mice [2]; lamotrigine 20 mg/kg ip, vehicle C 41.8 ± 0.1): 40.5 ± 0.3 °C | Effect on hyperthermia‐induced seizure response (Scn1a +/− mice [2]): significantly worsened

CCC1(c2ccccc2)C(=O)NC(=O)NC1=O [Phenobarbital]
concentration at 24 h ([5]; mouse, plasma, oral, 300 mg per kg of chow, Plasma level, hyperthermia‐primed mice, phenobarbital chow, 24 h post seizure induction, primed): 17800 ± 3200 ng/mL | Effectiveness in Dravet syndrome cohort (Dravet syndrome patients): limited effectiveness | Effect on spontaneous GTCS frequency (Scn1a +/− mice [3]): did not result in a statistically significant change

CN1C(=O)CC(=O)N(c2ccccc2)c2cc(Cl)ccc21 [Clobazam]
AUC(0-inf) ([1]; mouse, plasma, ip, 10 mg/kg): 2.58 µg·h/mL | half-life ([1]; mouse, plasma, ip, 10 mg/kg): 0.633 h | Mice exhibiting spontaneous GTCS (Scn1a +/− mice [6]): 25% | Subchronic treatment plasma concentration [5]: BQL | Cases with seizure reduction (Dravet syndrome patients; Dravet syndrome cohort): ~75% | Patients with effective response with tolerable side effects (Dravet syndrome patients; Dravet syndrome cohort): > 50% | Effect on spontaneous GTCS frequency (Scn1a +/− mice [3]): did not result in a statistically significant change | Protection from hyperthermia‐induced GTCS (Scn1a +/− mice [2]; clobazam 0.1 mg/kg ip, P14–P16): 37.5% | Protection from hyperthermia‐induced GTCS (Scn1a +/− mice [2]; clobazam 1 mg/kg ip): 50% | Protection from hyperthermia‐induced GTCS (Scn1a +/− mice [2]; clobazam 10 mg/kg ip): Complete protection

CC1(C)O[C@@H]2[C@@H](CO[C@@]3(COS(N)(=O)=O)OC(C)(C)O[C@@H]23)O1 [Topiramate]
Patients with effective response with tolerable side effects (Dravet syndrome patients; Dravet syndrome cohort): less than 45% | Mice surviving through P30 (Scn1a +/− mice [4]): 100% | Effect on hyperthermia‐induced seizure response (Scn1a +/− mice [2]): no effect

NC(=O)N1c2ccccc2CC(=O)c2ccccc21 [oxcarbazepine]
Patients with significant worsening of seizures (Dravet syndrome patients; Dravet syndrome cohort): approximately 50% | Patients with significant worsening of seizures (patients/patients trialed) (Dravet syndrome patients; Dravet syndrome cohort): 28/50

NC(=O)N1c2ccccc2C=Cc2ccccc21 [Carbamazepine]
Patients with significant worsening of seizures (Dravet syndrome patients; Dravet syndrome cohort): approximately 50% | Patients with significant worsening of seizures (patients/patients trialed) (Dravet syndrome patients; Dravet syndrome cohort): 16/32 | Mice surviving through P30 (Scn1a +/− mice [4]): 100% | Effect on hyperthermia‐induced seizure response (Scn1a +/− mice [2]): no effect

O=C1NC(=O)C(c2ccccc2)(c2ccccc2)N1 [Phenytoin]
Patients with significant worsening of seizures (Dravet syndrome patients; Dravet syndrome cohort): approximately 50% | Patients with significant worsening of seizures (patients/patients trialed) (Dravet syndrome patients; Dravet syndrome cohort): 15/31 | Effect on hyperthermia‐induced seizure response (Scn1a +/− mice [2]): no effect

O=C1CC(=O)N(c2ccccc2)c2cc(Cl)ccc2N1 [NCLB, N‐desmethylclobazam]
Cmax in plasma [1, 7]: 3100 ng/mL | tmax [1, 7]: 1.5 h | Subchronic treatment plasma concentration [5]: 0.6 ± 0.03 µg/mL
